Like-named read-outs stand apart in the source and are kept apart here.
Assays:
[1] = target: T1, human mGlu2 receptor (Homo sapiens, UniProt Q14416); assay: [35S]GTPγS binding assay (mGluR2 negative allosteric modulation, glutamate ~EC80 60 μM); type: biochemical; conditions: for Emax: read-out: GTPγS-hmGluR2 anGT Emax; for IC50: glutamate ~EC80 (60 μM), pIC50 = −log IC50 (M)
T1 construct: expressed in transfected cells; host or cells: CHO cells
Procedure: 1) [^35S]GTPγS Binding Assay
[^35S]GTPγS Binding Assay
Total reaction volume was 200 μl. […] Membrane-bound radioactivity was counted in a Topcount.

[2] = maximal % inhibition relative to the control glutamate response (EC80 glutamate)
[3] = membranes from CHO cells transfected with human mGlu2 receptor, read-out: GTPγS-hmGluR2 anGT pIC50 (converted)

T1 sequence (Q14416 19-872): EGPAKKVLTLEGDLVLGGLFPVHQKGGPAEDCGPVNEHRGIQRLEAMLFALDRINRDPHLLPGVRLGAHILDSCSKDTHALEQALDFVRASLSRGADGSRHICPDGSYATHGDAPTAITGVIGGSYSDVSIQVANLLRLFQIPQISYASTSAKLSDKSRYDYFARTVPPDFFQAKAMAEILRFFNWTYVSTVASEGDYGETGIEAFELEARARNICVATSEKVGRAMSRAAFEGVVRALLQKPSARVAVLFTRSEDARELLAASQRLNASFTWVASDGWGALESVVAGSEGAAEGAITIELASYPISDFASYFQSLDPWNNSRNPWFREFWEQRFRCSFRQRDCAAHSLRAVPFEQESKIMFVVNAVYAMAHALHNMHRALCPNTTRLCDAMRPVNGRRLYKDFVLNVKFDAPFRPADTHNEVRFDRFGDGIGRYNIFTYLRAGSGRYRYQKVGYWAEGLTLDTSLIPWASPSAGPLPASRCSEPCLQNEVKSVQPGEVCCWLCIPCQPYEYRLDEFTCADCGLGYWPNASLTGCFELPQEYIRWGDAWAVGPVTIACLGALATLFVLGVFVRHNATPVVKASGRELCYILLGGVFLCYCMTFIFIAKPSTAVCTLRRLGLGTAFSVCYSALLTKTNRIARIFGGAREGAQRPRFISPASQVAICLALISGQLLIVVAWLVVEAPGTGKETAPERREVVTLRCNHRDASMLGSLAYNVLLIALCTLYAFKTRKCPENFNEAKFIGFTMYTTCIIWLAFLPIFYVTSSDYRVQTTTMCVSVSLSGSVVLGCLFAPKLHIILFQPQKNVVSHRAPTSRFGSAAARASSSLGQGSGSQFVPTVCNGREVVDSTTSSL

| Compound | Emax [1, 2] [%] | IC50 [1, 3] [M] | melting point [°C] | IC50 ([1]; GTPγS-hmGluR2 anGT pIC50, membranes from CHO cells transfected with human mGlu2 receptor) [M] | Emax [1] [%] | GTPγS-hmGluR2 anGT Emax [1, 2] [%] |
| --- | --- | --- | --- | --- | --- | --- |
| C[C@H]1CN(c2ccc(C(F)(F)F)cc2)C(=O)c2c(NC(=O)c3c[nH]c(N)n3)cnn21 [Co. No. 94, 2-Amino-N-[(7S)-7-methyl-4-oxo-5-[4-(trifluoromethyl)phenyl]-6,7-dihydropyrazolo[1,5-a]pyrazin-3-yl]-1H-imidazole-4-carboxamide] | 98 | 4.57e-07 | 272.72 |  |  |  |
| C[C@H]1CN(c2ccc(C(F)(F)F)cc2)C(=O)c2c(NC(=O)c3ccc(N)cn3)cnn21 [Co. No. 68, 5-Amino-N-[(7S)-7-methyl-4-oxo-5-[4-(trifluoromethyl)phenyl]-6,7-dihydropyrazolo[1,5-a]pyrazin-3-yl]pyridine-2-carboxamide] | 107 | 2.82e-08 | 289.4 |  |  |  |
| C[C@H]1CN(c2ccc(C(F)(F)F)cc2)C(=O)c2c(NC(=O)c3cncn3C)cnn21 [Co. No. 91] | 101 | 3.47e-07 | 162.27 |  |  |  |
| C[C@H]1CN(c2ccc(C(F)(F)F)cc2)C(=O)c2c(NC(=O)c3cccc(S(=O)(=O)F)c3)cnn21 [Co. No. 217] |  |  | 161.88 | 1.07e-08 | 110 |  |
| Cc1ccc(C(=O)Nc2cnn3c2C(=O)N(c2ccc(C(F)(F)F)cc2)C[C@@H]3C)cc1 [Co. No. 53] | 104 | 1.78e-08 | 198.98 |  |  |  |
| Cc1c(F)cncc1C(=O)Nc1cnn2c1C(=O)N(c1ccc(C(F)(F)F)cc1)C[C@@H]2C [Co. No. 136] | 106 | 2.45e-08 | 89.55 |  |  |  |
| C[C@H]1CN(c2ccc(OC(F)(F)F)c(Cl)c2)C(=O)c2c(NC(=O)c3cccnc3)cnn21 [Co. No. 195] | 105 | 1.58e-09 | 181.21 |  |  |  |
| Cc1cc(C(=O)Nc2cnn3c2C(=O)N(c2ccc(C(F)(F)F)c(Cl)c2)C[C@@H]3C)cc(N)n1 [Co. No. 174] | 106 | 1.66e-09 | 192.47 |  |  |  |
| C[C@H]1CN(c2ccc(C(F)(F)F)cc2)C(=O)c2c(NC(=O)c3cn[nH]c3)cnn21 [Co. No. 79] | 107 | 8.51e-08 | 240.1 |  |  |  |
| C[C@H]1CN(c2ccc(C(F)(F)F)cc2)C(=O)c2c(NC(=O)C3CCOCC3)cnn21 [Co. No. 186] | 106 | 7.08e-07 | 142.94 |  |  |  |
| COc1ccnc(C(=O)Nc2cnn3c2C(=O)N(c2ccc(C(F)(F)F)cc2)C[C@@H]3C)c1 [Co. No. 60] | 111 | 2.45e-08 | 227.69 |  |  |  |
| COc1cc(C(=O)Nc2cnn3c2C(=O)N(c2ccc(C(F)(F)F)cc2)C[C@@H]3C)ccc1F [Co. No. 51] | 113 | 1.45e-08 | 140.98 |  |  |  |
| Cc1cc(C(=O)Nc2cnn3c2C(=O)N(c2ccc(C(F)(F)F)c(F)c2)C[C@@H]3C)cc(C)n1 [Co. No. 129] | 108 | 5.62e-09 | 148.36 |  |  |  |
| CC(=O)Nc1ccc(C(=O)Nc2cnn3c2C(=O)N(c2ccc(C(F)(F)F)cc2)C[C@@H]3C)cn1 [Co. No. 159, 6-acetamido-N-[(7S)-7-methyl-4-oxo-5-[4-(trifluoromethyl)phenyl]-6,7-dihydropyrazolo[1,5-a]pyrazin-3-yl]pyridine-3-carboxamide] | 106 | 6.03e-09 | 265 |  |  |  |
| COc1ccc(F)cc1C(=O)Nc1cnn2c1C(=O)N(c1ccc(C(F)(F)F)cc1)C[C@@H]2C [Co. No. 10] | 113 | 2.57e-09 | 204.35 |  |  |  |
| C[C@H]1CN(c2ccc(C(F)F)c(Cl)c2)C(=O)c2c(NC(=O)c3ccc(N)nc3)cnn21 [Co. No. 40] |  |  | 133.34 |  |  | 113 |
| Cc1ncc(C(=O)Nc2cnn3c2C(=O)N(c2ccc(C(F)(F)F)cc2)C[C@@H]3C)cn1 [Co. No. 88] | 99 | 2.24e-07 | 231.1 |  |  |  |
| C[C@H]1CN(c2ccc(C(F)(F)F)cc2)C(=O)c2c(NC(=O)c3ccc(F)cn3)cnn21 [Co. No. 48] | 108 | 1.32e-08 | 221.22 |  |  |  |

| Compound | Emax [1, 2] [%] | IC50 [1, 3] [M] | melting point [°C] | IC50 ([1]; GTPγS-hmGluR2 anGT pIC50, membranes from CHO cells transfected with human mGlu2 receptor) [M] | Emax [1] [%] | GTPγS-hmGluR2 anGT Emax [1, 2] [%] |
| --- | --- | --- | --- | --- | --- | --- |
| COc1ccc(C(=O)Nc2cnn3c2C(=O)N(c2ccc(C(F)(F)F)cc2)C[C@@H]3C)cn1 [Co. No. 42] | 105 | 1.1e-08 | 127.02 |  |  |  |
| COc1cc(N2C[C@H](C)n3ncc(NC(=O)c4cc(C)nc(C)c4)c3C2=O)ccc1C(F)(F)F [Co. No. 125] | 104 | 4.07e-09 | 226.99 |  |  |  |
| C[C@H]1CN(c2ccc(C(F)(F)F)cc2)C(=O)c2c(NC(=O)c3cnc(N)s3)cnn21 [Co. No. 74, 2-Amino-N-[(7S)-7-methyl-4-oxo-5-[4-(trifluoromethyl)phenyl]-6,7-dihydropyrazolo[1,5-a]pyrazin-3-yl]thiazole-5-carboxamide] | 113 | 3.39e-08 | 283.48 |  |  |  |
| COc1nc(N2C[C@H](C)n3ncc(NC(=O)c4ccc(N)nc4)c3C2=O)ccc1C(F)(F)F [Co. No. 33] | 117 | 7.59e-09 | 250.03 |  |  |  |
| Cc1cc(C(=O)Nc2cnn3c2C(=O)N(c2ccc(C(F)(F)F)c(Cl)c2)C[C@@H]3C)c(C)cn1 [Co. No. 158] | 112 | 4.07e-09 | 130.79 |  |  |  |
| C[C@H]1CN(c2ccc(C(F)(F)F)cc2)C(=O)c2c(NC(=O)c3ccc(Cl)cn3)cnn21 [Co. No. 46] | 104 | 1.26e-08 | 237.65 |  |  |  |
| C[C@H]1CN(c2ccc(C(F)(F)F)cc2)C(=O)c2c(NC(=O)c3cncc(F)n3)cnn21 [Co. No. 219, 6-fluoro-N-[(7S)-7-methyl-4-oxo-5-[4-(trifluoromethyl)phenyl]-6,7-dihydropyrazolo[1,5-a]pyrazin-3-yl]pyrazine-2-carboxamide] | 107 | 3.31e-09 | 183.54 |  |  |  |
| Cc1cc(N)ncc1C(=O)Nc1cnn2c1C(=O)N(c1ccc(C(F)(F)F)cc1)C[C@@H]2C [Co. No. 163, 6-Amino-4-methyl-N-[(7S)-7-methyl-4-oxo-5-[4-(trifluoromethyl)phenyl]-6,7-dihydropyrazolo[1,5-a]pyrazin-3-yl]pyridine-3-carboxamide] | 106 | 2.57e-09 | 226.06 |  |  |  |
| COc1ccc(F)c(C(=O)Nc2cnn3c2C(=O)N(c2ccc(C(F)(F)F)cc2)C[C@@H]3C)c1 [Co. No. 37] | 116 | 9.12e-09 | 185.41 |  |  |  |
| COc1cc(F)cc(C(=O)Nc2cnn3c2C(=O)N(c2ccc(C(F)(F)F)cc2)C[C@@H]3C)c1 [Co. No. 17] | 114 | 3.72e-09 | 136.53 |  |  |  |
| C[C@H]1CN(c2ccc(C(F)(F)F)cc2)C(=O)c2c(NC(=O)c3ccnc(N)c3)cnn21 [Co. No. 50] | 104 | 1.38e-08 | 225.63 |  |  |  |
| COc1cccc(C(=O)Nc2cnn3c2C(=O)N(c2ccc(C(F)(F)F)c(OC)n2)C[C@@H]3C)c1 [Co. No. 56] | 107 | 2.04e-08 | 160.66 |  |  |  |
| Cc1cc(C(=O)Nc2cnn3c2C(=O)N(c2ccc(C(F)(F)F)c(Cl)c2)C[C@@H]3C)cc(Cl)n1 [Co. No. 142] | 109 | 2.45e-09 | 124.01 |  |  |  |
| O=C(Nc1cnn2c1C(=O)N(c1ccc(C(F)(F)F)cc1)CC2)c1cccnc1 [Co. No. 190] | 102 | 1.07e-06 | 162.12 |  |  |  |
| CC(=O)Nc1cnn2c1C(=O)N(c1ccc(C(F)(F)F)cc1)C[C@@H]2C [Co. No. 160, N-[(7S)-7-methyl-4-oxo-5-[4-(trifluoromethyl)phenyl]-6,7-dihydropyrazolo[1,5-a]pyrazin-3-yl]acetamide] | 101 | 6.31e-07 | 142.82 |  |  |  |
| C[C@H]1CN(c2ccc(C(F)(F)F)cc2)C(=O)c2c(NC(=O)CC3CC3)cnn21 [Co. No. 73] | 98 | 4.79e-08 | 152.2 |  |  |  |
| C[C@H]1CN(c2ccc(C(F)(F)F)cc2)C(=O)c2c(NC(=O)c3cncc(F)c3)cnn21 [Co. No. 31] | 114 | 7.24e-09 | 185.29 |  |  |  |

Source: patent US10519162B2, “6,7-dihydropyrazolo[1,5-α]pyrazin-4(5H)-one compounds and their use as negative allosteric modulators of mGluR2 receptors” (Janssen Pharmaceutica NV, priority 2014, dated 2019)
